Molecules are shown by their SMILES.

By Kd is commonly meant a measure of binding affinity in units of concentration.

One experiment concerns the target T1, factor IXa (Homo sapiens, UniProt P00740).
T1 construct: intrinsic tryptophan fluorescence of factor IXa
Description: Binding of C6PS to Factor IXa detected by intrinsic fluorescence. The conditions noted are these: 0.20 μM factor IXa, 5 mM calcium, 22° C., single binding site model; read-out: stoichiometric Kd of C6PS binding to factor IXa. Here is the method: Integrated intrinsic fluorescence of 0.20 μM factor IXa in 50 mM Tris, 150 mM NaCl, 5 mM CaCl2, and 0.6% PEG, pH 7.5 was measured as a function of C6PS concentration at 22° C. to follow C6PS binding.

For another experiment, the target named is T2, factor Va (Bos taurus, UniProt Q28107).
T2 sequence (Q28107 29-741 limits assumed): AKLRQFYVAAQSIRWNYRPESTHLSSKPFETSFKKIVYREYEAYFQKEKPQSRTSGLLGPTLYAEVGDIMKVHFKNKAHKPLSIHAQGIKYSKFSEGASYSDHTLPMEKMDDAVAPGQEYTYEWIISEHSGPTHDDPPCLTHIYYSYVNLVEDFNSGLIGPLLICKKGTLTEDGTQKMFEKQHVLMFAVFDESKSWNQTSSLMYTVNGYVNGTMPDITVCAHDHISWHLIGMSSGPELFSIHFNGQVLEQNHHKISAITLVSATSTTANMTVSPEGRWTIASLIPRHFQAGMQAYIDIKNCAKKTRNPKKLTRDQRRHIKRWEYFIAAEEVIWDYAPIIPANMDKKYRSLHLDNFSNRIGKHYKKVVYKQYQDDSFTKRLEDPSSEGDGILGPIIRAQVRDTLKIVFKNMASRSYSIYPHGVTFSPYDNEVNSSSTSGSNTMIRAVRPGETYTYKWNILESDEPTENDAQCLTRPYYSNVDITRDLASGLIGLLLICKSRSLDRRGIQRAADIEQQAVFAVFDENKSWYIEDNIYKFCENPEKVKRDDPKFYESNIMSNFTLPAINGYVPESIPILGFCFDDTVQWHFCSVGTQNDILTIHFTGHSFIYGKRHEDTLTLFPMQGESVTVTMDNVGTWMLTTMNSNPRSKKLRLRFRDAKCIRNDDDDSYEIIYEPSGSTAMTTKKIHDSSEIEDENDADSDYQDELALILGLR
T2 sequence (Q28107 1565-2211 limits assumed): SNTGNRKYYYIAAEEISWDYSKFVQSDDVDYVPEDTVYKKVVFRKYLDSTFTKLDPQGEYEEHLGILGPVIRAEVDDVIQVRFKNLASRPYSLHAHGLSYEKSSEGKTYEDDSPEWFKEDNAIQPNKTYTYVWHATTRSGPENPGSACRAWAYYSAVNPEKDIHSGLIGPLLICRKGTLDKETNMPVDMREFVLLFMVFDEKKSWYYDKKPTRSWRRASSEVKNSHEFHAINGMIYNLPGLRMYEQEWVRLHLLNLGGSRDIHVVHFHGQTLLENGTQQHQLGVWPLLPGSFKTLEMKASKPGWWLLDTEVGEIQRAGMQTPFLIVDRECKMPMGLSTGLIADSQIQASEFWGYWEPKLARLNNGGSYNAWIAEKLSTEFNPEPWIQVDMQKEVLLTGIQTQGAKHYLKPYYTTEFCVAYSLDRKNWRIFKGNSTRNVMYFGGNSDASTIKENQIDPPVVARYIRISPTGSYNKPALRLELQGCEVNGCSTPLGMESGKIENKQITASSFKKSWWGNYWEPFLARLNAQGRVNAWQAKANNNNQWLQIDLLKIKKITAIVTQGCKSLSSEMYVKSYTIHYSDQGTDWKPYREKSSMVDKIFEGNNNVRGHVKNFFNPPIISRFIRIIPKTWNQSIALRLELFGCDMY
The conditions noted are these: Zhai et al. (2002); read-out: kd of binding to factor Va; cited from earlier work.

The target in the next experiment is FXa (Homo sapiens, UniProt P00742). Description: Native gel electrophoresis (Ferguson analysis), C6PS bound to FXa. The class given is binding. Details: Human prothrombin and factor Xa; purchased Hematologic Technologies Inc. (Essex Junction, Vt.). The conditions noted are these: 400 μM C6PS. Here is the method:
Native Gel Electrophoresis. This method has been used to document the association of blood coagulation proteins in solution (Majumder, et al. (2002) supra; Majumder, et al. (2003) supra). A mixture of 1 nM FXa and 1 nM FVa was incubated at 37° C. for 2 minutes in the presence and absence of 400 μM C6PS and the two samples were run together with known marker proteins (270 kiloDalton-14.2 kiloDalton; SIGMA, St. Louis, Mo.) on five gels (5, 6, 6.5, 7, and 8% total acrylamide with bisacrylamide/acrylamide being 1/29 in all cases) in a BIORAD® MINI-PROTEAN® II minigel apparatus (BIORAD® Corp., Hercules, Calif.) and stained with colloidal Coomassie blue (Mitra, et al. (1994) supra). FXa and FVa, at these same concentrations and in the presence of 400 μM C6PS, were run separately as controls. Protein retardation coefficients, which depend to a good approximation only on the hydrodynamic size and shape of the protein, were determined for both the marker and unknown proteins (Ferguson (1964) Metabolism 13:985-1002). A log-log plot of the retardation coefficient against the molecular weights of the marker proteins produced a linear curve from which the molecular weight of the FVa•FXa complex was determined from its measured retardation coefficient (Bryan (1977) Anal. Biochem. 78(2):513-9). […]

Sequence of FXa (P00742 41-179 limits assumed): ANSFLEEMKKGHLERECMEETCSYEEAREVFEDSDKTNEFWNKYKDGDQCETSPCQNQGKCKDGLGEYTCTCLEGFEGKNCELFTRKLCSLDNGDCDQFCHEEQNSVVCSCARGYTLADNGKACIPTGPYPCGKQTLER
Sequence of FXa (P00742 235-488 limits assumed): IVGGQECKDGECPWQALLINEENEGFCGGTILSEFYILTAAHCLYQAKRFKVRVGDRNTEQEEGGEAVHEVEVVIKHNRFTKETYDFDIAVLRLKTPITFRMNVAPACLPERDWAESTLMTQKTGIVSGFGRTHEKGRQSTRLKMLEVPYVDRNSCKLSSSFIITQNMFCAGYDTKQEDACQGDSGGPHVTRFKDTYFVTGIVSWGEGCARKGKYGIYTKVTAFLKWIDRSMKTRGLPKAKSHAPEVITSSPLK
T1 sequence (P00740 47-191 limits assumed): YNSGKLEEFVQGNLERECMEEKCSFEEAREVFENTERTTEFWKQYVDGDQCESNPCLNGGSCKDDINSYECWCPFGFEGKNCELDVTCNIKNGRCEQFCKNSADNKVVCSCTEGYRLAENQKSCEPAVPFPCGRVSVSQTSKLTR
T1 sequence (P00740 227-461 limits assumed): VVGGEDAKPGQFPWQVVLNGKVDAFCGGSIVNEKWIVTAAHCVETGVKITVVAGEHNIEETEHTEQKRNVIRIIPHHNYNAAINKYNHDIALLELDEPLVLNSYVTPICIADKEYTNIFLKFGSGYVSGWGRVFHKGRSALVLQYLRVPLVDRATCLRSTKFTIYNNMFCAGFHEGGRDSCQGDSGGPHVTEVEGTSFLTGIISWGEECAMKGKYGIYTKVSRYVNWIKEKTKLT

For `CCCCCC(=O)OC[C@H](COP(=O)(O)OC[C@H](N)C(=O)O)OC(=O)CCCCC` [C6PS, 1,2-dicaproyl-sn-glycero-3-phospho-L-serine], the Kd on factor IXa was around 1.3 µM; at factor Va it was around 90 µM. Moreover, the “molecules of C6PS bound to FXa from molecular mass” value at FXa is 1.5 molecules.

Values taken from patent US7727736B2, “Soluble phospholipids for use in clotting factor assays” (The University of North Carolina at Chapel Hill, priority 2003, dated 2010).
